We go through 1 molecule from US12605374B2, “Methods for drug screening and compositions useful for the inhibition of cell proliferation and/or cell survival” (The Brigham and Women's Hospital, Inc., priority 2019, dated 2026).

Test [1] deals with embryonic zebrafish. Briefly: Blinded re-screen of top 10 prioritized ChemBridge compounds for developmental phenotypes in embryonic zebrafish. The format is in vivo. Here is the method: Male and female wild-type (AB) fish were housed and embryos bred for screening using standard protocols. […] 10 mM compound stocks were diluted to 2 mM using DMSO, and 1 μL of each diluted compound solution was introduced into individual wells at 5 hours post fertilization (hpf) using a manual multichannel pipettor (10 uM final concentration). The first and last column of each plate received only DMSO, serving as negative control wells.
Embryos were screened for a series of developmental phenotypes at both 24 and 48 hpf using standard light microscopy. […] Only those wells where at least two of the three embryos were dead or delayed were annotated as a hit for 24 hour death or delay/arrest, respectively.
Resulting scores for each phenotype were used to rank the over 900,000 compounds. Enrichment for compounds with high (>0.95) similarity to known therapeutics (defined using Tanimoto Coefficient of molecular fingerprints) was calculated for each of the 6 ranked lists using gene set enrichment analysis^69. The top 10 highest-ranking compounds from each of the 6 lists were screened as described above, blinded and in duplicate.

Test [2] concerns Human osteosarcoma cells (U-2 OS). Description: EdU proliferation assay in human cell line. The class given is cell-based. The settings on record: osteoblastic / immortalized cells (U-2 OS), four hours after drug introduction; positive control c-Myc inhibitor 10058-F4. The protocol: FIG. 16 (A)-(C): Effect of DA5 in human cell culture. Proliferation of osteoblastic cells was measured following introduction of DA5.
Human osteosarcoma cells (U-2 OS) were obtained from ATCC (HTB-96) and re-suspended in McCoy's 5a medium (ATCC 30-2007) containing 10% FBS and penicillin/streptomycin. Cells were passaged at least 5 times before use in proliferation assays. To perform the proliferation assay, cells were trypsinized using standard protocols, plated at 1000 cells per well in 96-well clear-bottom black cell culture treated plates, and allowed 24 hours to attach. Compounds of interest were dissolved in DMSO and introduced at an overall DMSO concentration not exceeding 0.1% by volume. Four hours after drug introduction, cells were stained and fixed using the protocol described in the Click-iT EdU Alexa Fluor 488 Imaging kit (Thermo Fisher), with Hoescht staining used to identify total cell numbers. Each well was imaged using a Nikon Eclipse Ti Epifluorescent microscope with automated stage and counts of dividing and total cells were obtained in an automated fashion using Nikon's NIS Elements software. Percent of dividing cells reported is the result of at least 4 replicates. Controls were given the same DMSO concentration by volume as compound-treated wells.

Consider `CCC1(CC)CCN(C(=O)c2cc(COc3ccc4ncccc4c3)on2)C1` [ChemBridge ID 65692859, 6-([3-[(3,3-diethylpyrrolidin-1-yl)carbonyl]isoxazol-5-yl]methoxy)quinoline], for which the “Hit (predicted phenotype observed)” value in test [1] (Prediction: Delay/Arrest) was “Yes”. The “Phenotype Observed” value in test [1] (embryonic zebrafish, 10 uM introduced at 5 hpf, scored at 24 and 48 hpf, blinded, in duplicate) is listed as “Bud stage at 24 h, dead at 48 h”. For the same molecule, the “suppression of cell proliferation” value in test [2] is “greater than that seen with positive control”.
